# Test results as given in ChEMBL document CHEMBL3352260, “Identification and development of biphenyl substituted iminosugars as improved dual glucosylceramide synthase/neutral glucosylceramidase inhibitors” (J Med Chem, 2014).
# Target: T1, Lysosomal acid glucosylceramidase (Homo sapiens, UniProt P04062)
# T1 sequence (P04062 whole entry): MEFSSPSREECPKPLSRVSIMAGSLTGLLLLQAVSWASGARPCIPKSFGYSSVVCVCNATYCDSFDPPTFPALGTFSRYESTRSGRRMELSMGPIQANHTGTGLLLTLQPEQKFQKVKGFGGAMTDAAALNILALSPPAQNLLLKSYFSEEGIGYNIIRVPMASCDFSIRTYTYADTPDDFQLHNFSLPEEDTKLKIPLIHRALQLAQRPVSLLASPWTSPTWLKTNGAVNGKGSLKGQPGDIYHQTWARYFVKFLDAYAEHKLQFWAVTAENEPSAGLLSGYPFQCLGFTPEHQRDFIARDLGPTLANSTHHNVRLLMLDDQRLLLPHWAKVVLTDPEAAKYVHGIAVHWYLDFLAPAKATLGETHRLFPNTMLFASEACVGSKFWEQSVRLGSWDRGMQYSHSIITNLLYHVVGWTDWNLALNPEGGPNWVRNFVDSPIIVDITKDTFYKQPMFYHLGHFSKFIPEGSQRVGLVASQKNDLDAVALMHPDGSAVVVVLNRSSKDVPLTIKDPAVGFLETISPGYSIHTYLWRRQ
row,SMILES,IC50 [nM]
1,OC[C@@H]1[C@@H](O)[C@H](O)[C@@H](O)CN1CCCCCOCc1ccc(-c2ccc3c(c2)OCO3)cc1,500
2,CC(C)CCC[C@@H](C)[C@H]1CC[C@H]2[C@@H]3CC=C4C[C@@H](OCCCCCN5C[C@H](O)[C@@H](O)[C@H](O)[C@H]5CO)CC[C@]4(C)[C@H]3CC[C@]12C,500
3,OC[C@@H]1[C@@H](O)[C@H](O)[C@@H](O)CN1CCCCCOCc1ccc(-c2ccc3c(c2)OCCO3)cc1,250
4,CC(C)=CCC/C(C)=C/CC/C(C)=C/CCOCCCCCN1C[C@H](O)[C@@H](O)[C@H](O)[C@@H]1CO,50000
5,OC[C@@H]1[C@@H](O)[C@H](O)[C@@H](O)CN1CCCCCOCc1ccccc1,300
6,OC[C@H]1[C@@H](O)[C@H](O)[C@@H](O)CN1CCCCCOCc1ccccc1,10000
7,OC[C@H]1[C@@H](O)[C@H](O)[C@@H](O)CN1CCCCCOCC1CCCCC1,60000
8,OC[C@@H]1[C@@H](O)[C@H](O)[C@@H](O)CN1CCCCCOCC1CCCCC1,1500
9,OC[C@@H]1[C@@H](O)[C@H](O)[C@@H](O)CN1CCCCCOCc1ccc2ccccc2c1,1000
10,OC[C@@H]1[C@@H](O)[C@H](O)[C@@H](O)CN1CCCCCCOCC12CC3CC(CC(C3)C1)C2,200
11,O=C(CCCCCN1C[C@H](O)[C@@H](O)[C@H](O)[C@@H]1CO)NC12CC3CC(CC(C3)C1)C2,40000
12,CC(C)CCC[C@@H](C)[C@H]1CC[C@H]2[C@@H]3CC=C4C[C@@H](OCCCCCN5C[C@H](O)[C@@H](O)[C@H](O)[C@@H]5CO)CC[C@]4(C)[C@H]3CC[C@]12C,15000
13,OC[C@@H]1[C@@H](O)[C@H](O)[C@@H](O)CN1CCCCCOCc1ccc(-c2cncnc2)cc1,10000
14,OC[C@H]1[C@@H](O)[C@H](O)[C@@H](O)CN1CCCCCCOCC12CC3CC(CC(C3)C1)C2,5000
15,OC[C@@H]1[C@@H](O)[C@H](O)[C@@H](O)CN1CCCCCOCc1ccc2ccc3cccc4ccc1c2c34,500
16,O=C(CCCCCN1C[C@H](O)[C@@H](O)[C@H](O)[C@H]1CO)NC12CC3CC(CC(C3)C1)C2,500

# Target: T2, Beta-glucosidase (Homo sapiens, UniProt Q9HCG7)
# T2 sequence (Q9HCG7 whole entry): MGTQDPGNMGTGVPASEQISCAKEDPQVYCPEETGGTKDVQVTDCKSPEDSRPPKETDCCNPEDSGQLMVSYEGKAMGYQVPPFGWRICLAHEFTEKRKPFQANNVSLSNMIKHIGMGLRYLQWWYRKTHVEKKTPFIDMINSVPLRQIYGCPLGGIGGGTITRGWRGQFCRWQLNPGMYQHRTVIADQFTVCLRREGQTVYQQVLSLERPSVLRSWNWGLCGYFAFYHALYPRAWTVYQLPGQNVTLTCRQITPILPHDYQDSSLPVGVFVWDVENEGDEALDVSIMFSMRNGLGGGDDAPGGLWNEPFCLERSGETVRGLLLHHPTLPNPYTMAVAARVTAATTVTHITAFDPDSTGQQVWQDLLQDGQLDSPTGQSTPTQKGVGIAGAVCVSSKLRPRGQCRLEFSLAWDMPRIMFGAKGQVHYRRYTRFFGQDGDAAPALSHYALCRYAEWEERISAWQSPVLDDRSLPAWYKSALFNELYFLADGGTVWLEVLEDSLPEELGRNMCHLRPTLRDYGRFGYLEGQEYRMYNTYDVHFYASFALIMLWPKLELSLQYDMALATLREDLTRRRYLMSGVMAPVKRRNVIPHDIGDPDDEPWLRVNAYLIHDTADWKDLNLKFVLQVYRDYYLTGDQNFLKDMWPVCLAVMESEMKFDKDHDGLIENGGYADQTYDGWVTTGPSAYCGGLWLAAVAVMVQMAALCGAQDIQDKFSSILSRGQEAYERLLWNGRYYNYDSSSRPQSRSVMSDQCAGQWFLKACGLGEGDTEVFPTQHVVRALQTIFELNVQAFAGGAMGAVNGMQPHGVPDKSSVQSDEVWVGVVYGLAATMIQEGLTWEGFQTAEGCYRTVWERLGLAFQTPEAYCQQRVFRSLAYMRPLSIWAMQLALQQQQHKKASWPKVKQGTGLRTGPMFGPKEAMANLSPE
row,SMILES,IC50 [nM]
1,OC[C@@H]1[C@@H](O)[C@H](O)[C@@H](O)CN1CCCCCOCc1ccc(-c2ccc3c(c2)OCO3)cc1,2
2,OC[C@@H]1[C@@H](O)[C@H](O)[C@@H](O)CN1CCCCCOCc1ccc(-c2cccc(F)c2)cc1,1
3,CC(C)CCC[C@@H](C)[C@H]1CC[C@H]2[C@@H]3CC=C4C[C@@H](OCCCCCN5C[C@H](O)[C@@H](O)[C@H](O)[C@H]5CO)CC[C@]4(C)[C@H]3CC[C@]12C,5
4,OC[C@@H]1[C@@H](O)[C@H](O)[C@@H](O)CN1CCCCCOCc1ccc(-c2ccc3c(c2)OCCCO3)cc1,15
5,OC[C@@H]1[C@@H](O)[C@H](O)[C@@H](O)CN1CCCCCOCc1ccc(-c2ccc3c(c2)OCCO3)cc1,30
6,CC(C)=CCC/C(C)=C/CC/C(C)=C/CCOCCCCCN1C[C@H](O)[C@@H](O)[C@H](O)[C@@H]1CO,100
7,COc1ccccc1-c1ccc(COCCCCCN2C[C@H](O)[C@@H](O)[C@H](O)[C@H]2CO)cc1,3
8,OC[C@@H]1[C@@H](O)[C@H](O)[C@@H](O)CN1CCCCCOCc1ccccc1,1
9,OC[C@H]1[C@@H](O)[C@H](O)[C@@H](O)CN1CCCCCOCc1ccccc1,3
10,OC[C@H]1[C@@H](O)[C@H](O)[C@@H](O)CN1CCCCCOCC1CCCCC1,6
11,OC[C@@H]1[C@@H](O)[C@H](O)[C@@H](O)CN1CCCCCOCC1CCCCC1,4
12,OC[C@@H]1[C@@H](O)[C@H](O)[C@@H](O)CN1CCCCCOCc1ccc2ccccc2c1,1
13,OC[C@@H]1[C@@H](O)[C@H](O)[C@@H](O)CN1CCCCCCOCC12CC3CC(CC(C3)C1)C2,2
14,O=C(CCCCCN1C[C@H](O)[C@@H](O)[C@H](O)[C@@H]1CO)NC12CC3CC(CC(C3)C1)C2,15
15,CC(C)CCC[C@@H](C)[C@H]1CC[C@H]2[C@@H]3CC=C4C[C@@H](OCCCCCN5C[C@H](O)[C@@H](O)[C@H](O)[C@@H]5CO)CC[C@]4(C)[C@H]3CC[C@]12C,20
16,OC[C@@H]1[C@@H](O)[C@H](O)[C@@H](O)CN1CCCCCOCc1ccc(-c2cncnc2)cc1,25
17,OC[C@H]1[C@@H](O)[C@H](O)[C@@H](O)CN1CCCCCCOCC12CC3CC(CC(C3)C1)C2,2.5
18,OC[C@@H]1[C@@H](O)[C@H](O)[C@@H](O)CN1CCCCCOCc1ccc2ccc3cccc4ccc1c2c34,3
19,O=C(CCCCCN1C[C@H](O)[C@@H](O)[C@H](O)[C@H]1CO)NC12CC3CC(CC(C3)C1)C2,9

# Target: T3, Ceramide glucosyltransferase (Homo sapiens, UniProt Q16739)
# T3 sequence (Q16739 whole entry): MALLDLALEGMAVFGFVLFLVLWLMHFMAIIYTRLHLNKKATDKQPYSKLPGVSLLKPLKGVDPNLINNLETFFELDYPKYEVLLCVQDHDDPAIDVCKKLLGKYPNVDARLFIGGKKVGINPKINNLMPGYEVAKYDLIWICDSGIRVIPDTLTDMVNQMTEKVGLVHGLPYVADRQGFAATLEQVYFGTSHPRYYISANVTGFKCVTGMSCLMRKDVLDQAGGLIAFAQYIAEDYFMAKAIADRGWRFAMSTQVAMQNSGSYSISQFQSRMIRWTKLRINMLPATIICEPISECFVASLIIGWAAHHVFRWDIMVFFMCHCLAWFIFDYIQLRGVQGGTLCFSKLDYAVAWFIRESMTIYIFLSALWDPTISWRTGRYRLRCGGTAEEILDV
row,SMILES,IC50 [nM]
1,OC[C@@H]1[C@@H](O)[C@H](O)[C@@H](O)CN1CCCCCOCc1ccc(-c2cccnc2)cc1,2000
2,CC(C)CCC[C@@H](C)[C@H]1CC[C@H]2[C@@H]3CC=C4C[C@@H](OCCCCCN5C[C@H](O)[C@@H](O)[C@H](O)[C@H]5CO)CC[C@]4(C)[C@H]3CC[C@]12C,1000
3,OC[C@@H]1[C@@H](O)[C@H](O)[C@@H](O)CN1CCCCCOCc1ccc(-c2ccc3c(c2)OCCO3)cc1,40
4,OC[C@@H]1[C@@H](O)[C@H](O)[C@@H](O)CN1CCCCCOCc1ccc(-c2ccccc2F)cc1,75
5,CC(C)=CCC/C(C)=C/CC/C(C)=C/CCOCCCCCN1C[C@H](O)[C@@H](O)[C@H](O)[C@@H]1CO,2500
6,OC[C@@H]1[C@@H](O)[C@H](O)[C@@H](O)CN1CCCCCOCc1ccccc1,750
7,OC[C@H]1[C@@H](O)[C@H](O)[C@@H](O)CN1CCCCCOCc1ccccc1,200
8,OC[C@H]1[C@@H](O)[C@H](O)[C@@H](O)CN1CCCCCOCC1CCCCC1,70
9,OC[C@@H]1[C@@H](O)[C@H](O)[C@@H](O)CN1CCCCCOCC1CCCCC1,500
10,OC[C@@H]1[C@@H](O)[C@H](O)[C@@H](O)CN1CCCCCOCc1ccc2ccccc2c1,3
11,OC[C@@H]1[C@@H](O)[C@H](O)[C@@H](O)CN1CCCCCCOCC12CC3CC(CC(C3)C1)C2,300
12,O=C(CCCCCN1C[C@H](O)[C@@H](O)[C@H](O)[C@@H]1CO)NC12CC3CC(CC(C3)C1)C2,400
13,CC(C)CCC[C@@H](C)[C@H]1CC[C@H]2[C@@H]3CC=C4C[C@@H](OCCCCCN5C[C@H](O)[C@@H](O)[C@H](O)[C@@H]5CO)CC[C@]4(C)[C@H]3CC[C@]12C,1000
14,OC[C@@H]1[C@@H](O)[C@H](O)[C@@H](O)CN1CCCCCOCc1ccc(-c2cncnc2)cc1,2000
15,OC[C@H]1[C@@H](O)[C@H](O)[C@@H](O)CN1CCCCCCOCC12CC3CC(CC(C3)C1)C2,250
16,OC[C@@H]1[C@@H](O)[C@H](O)[C@@H](O)CN1CCCCCOCc1ccc2ccc3cccc4ccc1c2c34,3
17,O=C(CCCCCN1C[C@H](O)[C@@H](O)[C@H](O)[C@H]1CO)NC12CC3CC(CC(C3)C1)C2,1000
